According to paper PMC7935272 (PLoS Pathogens, 2021):
“And” between values parts separate entries of the source, which are not always exact repeats. Equal entries are not always repeated. Where two headings read alike, the source gives them in different places.

Tests used:
[1] = tested on: Vero-hSLAM cells
[2] = tested on: MeV; test: Synergy analysis ERDRP-0519 and GHP-88309, antiviral; format: cell-based; conditions: ERDRP519 0.00 µM
[3] = biological target: WT MeV L-P complexes (Measles virus, UniProt Q9WMB3); test: In vitro MeV RdRP assay, de novo initiation, 16-nt template, L WT; format: biochemical; conditions: de novo RNA synthesis, S9 Fig
Sequence of WT MeV L-P complexes (Q9WMB3 whole entry): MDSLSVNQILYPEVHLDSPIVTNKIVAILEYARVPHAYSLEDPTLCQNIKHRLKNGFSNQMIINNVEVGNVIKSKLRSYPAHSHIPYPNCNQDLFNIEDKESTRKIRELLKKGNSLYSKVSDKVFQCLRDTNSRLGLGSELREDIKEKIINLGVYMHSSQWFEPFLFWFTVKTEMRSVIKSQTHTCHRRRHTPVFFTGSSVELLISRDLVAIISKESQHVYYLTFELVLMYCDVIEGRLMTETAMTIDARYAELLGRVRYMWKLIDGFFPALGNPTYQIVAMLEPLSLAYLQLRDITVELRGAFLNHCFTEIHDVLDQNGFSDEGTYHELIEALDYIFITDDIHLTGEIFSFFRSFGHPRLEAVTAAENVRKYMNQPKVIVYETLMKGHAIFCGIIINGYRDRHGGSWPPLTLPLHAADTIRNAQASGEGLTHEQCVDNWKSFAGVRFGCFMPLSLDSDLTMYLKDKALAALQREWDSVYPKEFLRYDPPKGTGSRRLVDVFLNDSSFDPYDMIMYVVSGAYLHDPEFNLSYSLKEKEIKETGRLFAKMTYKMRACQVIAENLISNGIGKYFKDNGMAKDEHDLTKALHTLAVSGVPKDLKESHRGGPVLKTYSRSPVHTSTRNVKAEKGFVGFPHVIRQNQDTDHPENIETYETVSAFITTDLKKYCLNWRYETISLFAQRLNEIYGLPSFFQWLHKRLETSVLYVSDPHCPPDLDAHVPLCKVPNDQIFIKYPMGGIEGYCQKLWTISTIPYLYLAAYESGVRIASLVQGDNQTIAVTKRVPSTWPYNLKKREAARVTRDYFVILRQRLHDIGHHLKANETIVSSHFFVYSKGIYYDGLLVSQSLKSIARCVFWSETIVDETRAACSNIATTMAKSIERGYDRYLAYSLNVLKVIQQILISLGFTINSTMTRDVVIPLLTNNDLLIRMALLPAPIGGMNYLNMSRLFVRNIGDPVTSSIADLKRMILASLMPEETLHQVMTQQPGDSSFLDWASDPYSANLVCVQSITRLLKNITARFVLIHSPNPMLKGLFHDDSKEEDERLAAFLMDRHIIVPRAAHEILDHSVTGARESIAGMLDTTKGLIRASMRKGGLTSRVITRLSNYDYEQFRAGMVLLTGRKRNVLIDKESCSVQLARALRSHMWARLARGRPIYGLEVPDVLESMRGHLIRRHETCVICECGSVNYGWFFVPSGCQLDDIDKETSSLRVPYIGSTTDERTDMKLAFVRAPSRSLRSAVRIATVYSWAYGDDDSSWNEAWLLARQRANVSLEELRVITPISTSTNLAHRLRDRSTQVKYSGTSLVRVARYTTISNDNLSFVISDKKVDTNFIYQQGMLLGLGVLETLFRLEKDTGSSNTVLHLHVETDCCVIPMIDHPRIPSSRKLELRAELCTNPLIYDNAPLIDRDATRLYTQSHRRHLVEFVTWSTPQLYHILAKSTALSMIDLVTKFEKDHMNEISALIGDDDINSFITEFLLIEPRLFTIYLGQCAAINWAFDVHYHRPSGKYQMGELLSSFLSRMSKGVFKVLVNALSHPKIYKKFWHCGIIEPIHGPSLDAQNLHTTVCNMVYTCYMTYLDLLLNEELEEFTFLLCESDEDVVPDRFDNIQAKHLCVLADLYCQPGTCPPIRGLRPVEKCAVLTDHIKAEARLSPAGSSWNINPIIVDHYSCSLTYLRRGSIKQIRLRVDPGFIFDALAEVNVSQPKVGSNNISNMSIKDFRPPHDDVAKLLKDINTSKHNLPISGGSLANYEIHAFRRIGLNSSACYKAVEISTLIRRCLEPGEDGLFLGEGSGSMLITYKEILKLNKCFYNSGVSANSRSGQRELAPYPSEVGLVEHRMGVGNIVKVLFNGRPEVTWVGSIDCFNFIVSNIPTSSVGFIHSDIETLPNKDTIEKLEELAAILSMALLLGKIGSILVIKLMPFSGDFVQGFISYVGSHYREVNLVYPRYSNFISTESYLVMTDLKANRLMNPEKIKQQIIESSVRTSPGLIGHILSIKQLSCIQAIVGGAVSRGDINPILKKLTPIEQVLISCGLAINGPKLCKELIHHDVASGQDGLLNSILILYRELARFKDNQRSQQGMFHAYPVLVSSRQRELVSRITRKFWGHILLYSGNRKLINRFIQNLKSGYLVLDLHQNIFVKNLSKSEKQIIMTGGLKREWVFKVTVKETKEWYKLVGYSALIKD
Sequence of WT MeV L-P complexes (Q9WMB4 whole entry partner): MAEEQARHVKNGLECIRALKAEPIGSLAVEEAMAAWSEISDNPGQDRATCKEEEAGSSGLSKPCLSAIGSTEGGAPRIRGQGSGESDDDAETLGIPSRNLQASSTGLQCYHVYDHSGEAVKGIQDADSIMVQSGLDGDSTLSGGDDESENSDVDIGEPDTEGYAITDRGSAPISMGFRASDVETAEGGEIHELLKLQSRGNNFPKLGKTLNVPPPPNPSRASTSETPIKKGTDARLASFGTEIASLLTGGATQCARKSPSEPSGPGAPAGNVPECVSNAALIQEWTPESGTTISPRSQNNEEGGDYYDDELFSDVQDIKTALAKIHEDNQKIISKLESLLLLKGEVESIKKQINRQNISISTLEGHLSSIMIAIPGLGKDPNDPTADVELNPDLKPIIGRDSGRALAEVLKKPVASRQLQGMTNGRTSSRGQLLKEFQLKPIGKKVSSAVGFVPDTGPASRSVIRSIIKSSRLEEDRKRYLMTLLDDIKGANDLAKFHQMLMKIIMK

[4] = tested on: Vero-hSLAM cells; test: in vitro; format: cell-based, African green monkey
Procedure: (§1) To determine cytotoxic concentrations Vero-hSLAM cells were plated in 96 well plates (1.1 × 10^4 per well) and incubated with three-fold serial dilutions of compound. After incubation of uninfected cells for 72 hours, PrestoBlue substrate (Invitrogen) was added to quantify cell metabolic activity as described. Signal was measured using a BioTek H1 synergy multimode microplate reader. Where applicable, cytotoxic concentrations (CC50) were calculated based on four-parameter variable slope regression modeling.

[5] = in vitro; format: cell-based, African green monkey; conditions: African green monkey; Vero-hSLAM, 72 hours
Procedure: as §1

[6] = tested on: MeV; test: Antiviral dose-response assay, MeV-NanoPEST reporter virus in Vero-hSLAM cells
Procedure: Compound was added in three-fold dilutions to 96-well plates seeded with Vero-hSLAM cells (1.1 × 10^4 per well), followed by infection (MOI = 0.2 TCID50 units per cell) with a recombinant MeV-NanoPEST reporter virus harboring Nano luciferase [36]. After 30-hour incubation, Nano luciferase signals were quantified using a BioTek Synergy H1 multimode plate reader. Raw data were normalized according to norm. value [%] = (RLUsample—RLUmin) / (RLUmax—RLUmin)*100, with RLUmax representing vehicle (DMSO) volume equivalent-treated infected wells and RLUmin representing infected wells exposed to 1 mg/ml cycloheximide. Four-parameter variable slope regression modeling was used to determine EC50 and EC90 concentrations.

[7] = tested on: MeV; test: Cell-based anti-MeV assays of earlier work
[8] = cited from earlier work
[9] = tested on: MeV; conditions: cited from earlier work; for IC50: Figure 7A source data; for EC50: experimental activity, read-out: EC50
[10] = −log10(EC50) of literature EC50

In the case of `NC(=O)c1c(F)cccc1-c1cccc2cnccc12` [GHP88309], the “S4 B cytotoxicity matrix, normalized value” [1] is reported as 100.00, the “S4 B cytotoxicity matrix, normalized value” ([1]; ERDRP519 0.00 µM, GHP88309 0.27 µM) is reported as 99.90 and the “S4 B cytotoxicity matrix, normalized value” ([1]; ERDRP519 0.00 µM, GHP88309 0.82 µM) is reported as 99.44 and 91.52. The “S4 B cytotoxicity matrix, normalized value” ([1]; ERDRP519 0.00 µM, GHP88309 7.41 µM) was 97.69, the “S4 B cytotoxicity matrix, normalized value” ([1]; ERDRP519 0.00 µM, GHP88309 66.67 µM) was 98.85 and 98.57 and the “S4 B cytotoxicity matrix, normalized value” ([1]; ERDRP519 0.00 µM, GHP88309 200.00 µM) was 92.50 and 87.59 and 94.52. For the same compound, the “S4 A antiviral matrix, normalized value” ([2]; GHP88309 0.03 µM) was 100.00, the “S4 A antiviral matrix, normalized value” ([2]; GHP88309 0.08 µM) was 78.32 and 88.03 and 100.19 and 97.70 and the “S4 A antiviral matrix, normalized value” ([2]; GHP88309 0.74 µM) was 50.86 and 41.77 and 80.59 and 41.41. For the same compound, the “S4 A antiviral matrix, normalized value” ([2]; GHP88309 2.22 µM) was 14.61 and 17.48 and 22.13 and 11.92.
With `Cn1nc(C(F)(F)F)cc1C(=O)Nc1ccc(S(=O)(=O)N2CCCC[C@@H]2CCOCc2ccc(N=[N+]=[N-])cc2)cc1` [ERDRP-0519az, S(=O)(=O)(N1[C@@H](CCOCc2ccc(N=[N+]=[N-])cc2)CCCC1)c1ccc(NC(=O)c2n(C)nc(C(F)(F)F)c2)cc1] the “bioactivity in the in vitro RdRP assay” value [3] was “diminished potency”, the “Cytotoxicity, normalized metabolic activity (Figure 5B)” value ([4]; cpd concentration 0.045725) was 97.5938 and 98.2663 and 103.31 and the “Cytotoxicity, normalized metabolic activity (Figure 5B)” value ([4]; cpd concentration 0.137174) was 101.061 and 94.8618 and 104.907. For the same compound, the “Cytotoxicity, normalized metabolic activity (Figure 5B)” value ([4]; cpd concentration 0.411523) was 95.7655 and 116.003 and 116.276, the “Cytotoxicity, normalized metabolic activity (Figure 5B)” value ([4]; cpd concentration 1.23457) was 92.9074 and 113.376 and 114.469 and the “Cytotoxicity, normalized metabolic activity (Figure 5B)” value ([4]; cpd concentration 3.7037) was 94.1683 and 104.487 and 118.02. The “Cytotoxicity, normalized metabolic activity (Figure 5B)” value ([4]; cpd concentration 11.1111) was 88.7254 and 96.8582 and 105.432, the “Cytotoxicity, normalized metabolic activity (Figure 5B)” value ([4]; cpd concentration 33.3333) was 97.5097 and 90.4066 and 94.9249 and the “Cytotoxicity, normalized metabolic activity (Figure 5B)” value ([4]; cpd concentration 100) was 99.0228 and 98.1192 and 101.776. The cytotoxicity ([4]; highest concentration tested (100 μM)) was “No cytotoxicity was detectable”, the CC50 [5] was greater than 100 µM and the EC50 [6] was 12.1 µM. The “MeV inhibition, normalized reporter signal (Figure 5B)” value ([6]; cpd concentration 0.045725) was 95.5633 and 136.086 and 77.2785, the “MeV inhibition, normalized reporter signal (Figure 5B)” value ([6]; cpd concentration 0.137174) was 112.785 and 92.1722 and 86.1147 and the “MeV inhibition, normalized reporter signal (Figure 5B)” value ([6]; cpd concentration 0.411523) was 116.552 and 130.546 and 132.822. For the same compound, the “MeV inhibition, normalized reporter signal (Figure 5B)” value ([6]; cpd concentration 1.23457) was 119.15 and 109.045 and 127.688, the “MeV inhibition, normalized reporter signal (Figure 5B)” value ([6]; cpd concentration 11.1111) was 44.8748 and 67.0329 and 58.1588 and the “MeV inhibition, normalized reporter signal (Figure 5B)” value ([6]; cpd concentration 33.3333) was 8.061 and 7.668 and 10.5185. The “MeV inhibition, normalized reporter signal (Figure 5B)” value ([6]; cpd concentration 100) was 2.512 and 3.634 and 2.904.
In the case of `CC(C)N(C(C)C)S(=O)(=O)c1ccc(NC(=O)c2cc(C(F)(F)F)cn2C)cc1` [15o, S(=O)(=O)(N(C(C)C)C(C)C)c1ccc(NC(=O)c2n(C)cc(C(F)(F)F)c2)cc1], the IC50 ([7]; Figure 7A source data) is given as 0.53 µM, the IC50 [7, 10] is given as 0.531 µM and the CC50 [8] is given as greater than 300 µM. The IC50 [9] was 0.529 µM and the EC50 [9] was 0.52 µM.
In the case of `Cn1nc(C(F)(F)F)cc1C(=O)Nc1ccc(S(=O)(=O)N2CCCC2)cc1` [compound 16677, S(=O)(=O)(N1CCCC1)c1ccc(NC(=O)c2n(C)nc(C(F)(F)F)c2)cc1], the IC50 ([7]; Figure 7A source data) is given as 0.24 µM, the IC50 [7, 10] is given as 0.24 µM and the CC50 [8] is given as greater than 300 µM. For the same compound, the IC50 [9] was 0.239 µM and the EC50 [9] was 0.23 µM.
In the case of `C=CCN(CC=C)S(=O)(=O)c1ccc(NC(=O)c2cc(C(F)(F)F)cn2C)cc1` [15r, S(=O)(=O)(N(CC=C)CC=C)c1ccc(NC(=O)c2n(C)cc(C(F)(F)F)c2)cc1], the IC50 ([7]; Figure 7A source data) is listed as 3.3 µM, the IC50 [7, 10] is listed as 3.3 µM and the CC50 [8] is listed as 34 µM. The IC50 [9] was 3.3 µM and the EC50 [9] was 3.3 µM.
For `CCC1CCCCN1S(=O)(=O)c1ccc(NC(=O)c2cc(C(F)(F)F)cn2C)cc1` (stereo not shown) [15e, S(=O)(=O)(N1C(CC)CCCC1)c1ccc(NC(=O)c2n(C)cc(C(F)(F)F)c2)cc1], the IC50 ([7]; Figure 7A source data) is given as 0.087 µM, the IC50 [7, 10] is given as 0.0871 µM and the CC50 [8] is given as greater than 300 µM. The IC50 [9] was 0.0869 µM and the EC50 [9] was 0.086 µM.
